From patent US20220265626A1, “THE SERPINB3 INHIBITOR PIPERIDINPROPIONIC ACID FOR TUMOR TREATMENT” (UNIVERSITA' DEGLI STUDI DI PADOVA, priority 2019, published 2022)

Key:
[1] = tested on: HepG2/SB3 and HepG2/CTR cells; experiment: Cell viability by MTT assay with antitumor drugs in the absence or presence of PPA; assay type: cell-based; conditions: for Resistance/sensitivity to drug-induced cell death, HepG2/SB3 compared with HepG2/CTR: drug 10 μM, without PPA
Protocol: The SeprinB3 molecule is known to induce resistance to chemotherapy treatment. In order to evaluate whether the inhibition of said molecule is able to increase the therapeutic efficacy of antitumor drugs, HepG2 cells stably transfected to overexpress SerpinB3 (HepG2/SB3) and HepG2 cells transfected with only the empty plasmid (HepG2/CTR) have been incubated with several antitumor drugs at a concentration of 10 μM (Cisplatin, Sorafenib, 5-Fluorouracil, Methotrexate) in the absence or presence of PPA. […] The results are expressed as a percentage of viability compared to cells incubated with only medium (CTR).

[2] = tested on: HepG2 liver tumor derived cells (HB8065); experiment: Real-time cell proliferation / cellular toxicity (xCELLigence, Normalized Cell Index); assay type: cell-based; conditions: monitored for over 60 hours
Protocol: HepG2 liver tumor derived cells (HB8065), incubated with increasing concentrations of 1′-Piperidin propionic acid (PPA) in a range of 5 -50 μg/ml were used and real-time cell proliferation was analysed, using xCELLigence instrument (ACEA Biosciences, Inc., San Diego, Calif., USA), according to the supplier's instructions. In each well of an E-16 plate, 4×10^4 HepG2 cells (HB8065) were seeded in quadruplicate, cultured in complete MEM medium (Sigma-Aldrich, Milan, Italy) supplemented with 10% fetal calf serum (Sigma-Aldrich, Milan, Italy), 100 U/mL of penicillin, 100 μg/ml of streptomycin, and 20 mM L-glutamine (Sigma-Aldrich, Milan, Italy) and 1% of MEM Non Essential Amino Acids. The cells were kept in an incubator at 37° C. with 95% humidity and 5% CO2 saturation. The complete medium was used as a control. The RTCA system monitored the electrical impedance, which is directly proportional to the number of cells present per well, indicated as Cell Index every 5 min for over 60 hours. The cell proliferation curves were analysed with the RTCA software and expressed as the Normalized Cell Index at the time of the treatment with PPA, an arbitrary unit corresponding to the number of cells present per well.
It should be noted that said concentration (5 μg/ml) is markedly higher than the biologically active PPA concentrations, whose normal range of use was 10-100 ng/ml.

SerpinB3 = SerpinB3 mRNA expression by real-time PCR (induced by exogenous SerpinB3 in THP-1 and HT29; constitutive in OE33 and HepG2/SB3); assay type: cell-based
Protocol: PPA was added in culture at a concentration of 1-100 ng/ml alone or in combination with recombinant SerpinB3 (SB3) at a concentration of 20-200 ng/ml to the cells, while only culture medium was added to the control wells. After 24 hours of treatment, the cells were collected by scraper and the extraction of total cell RNA and reverse transcription were performed according to standard protocols. SerpinB3 mRNA levels were measured by real-time PCR (sense: 5′-[…]-3′ (SEQ ID NO:1); reverse 5′-[…]-3′ (SEQ ID NO:2)).
They were seeded in 6-well plates and kept for 24 hours before treatment, each in its own complete culture medium in (Sigma-Aldrich, Milan, Italy). PPA (1′-piperidin propionic acid) was then added at a concentration of 10-100 ng/ml in PBS.
It should be noted that concentrations of 1-10 ng/ml are already able to reduce the synthesis of SerpinB3 by about 50%.

[3] = tested on: THP-1 cells of monocytic origin; experiment: Real-time proliferation of THP-1 cells stimulated with exogenous SerpinB3 (xCELLigence); assay type: cell-based; conditions: THP-1 cells with exogenous SerpinB3 20 ng/ml, PPA 1 ng/ml, 10 ng/ml, 10 μg/ml, up to 120 hours
Protocol: To evaluate cell proliferation in real time, the xCELLigence instrument (ACEA Biosciences, Inc., San Diego, Calif., USA) was used, as described in Example 1. THP-1 cells of monocytic origin were used, whose incubation with exogenous recombinant SerpinB3 (20 ng/ml) had induced a marked increase in the synthesis of endogenous SerpinB3, as reported in Example 2. A suspension of […] cells in quadruplicate was seeded in each well of an E-16 plate, cultured in complete RPMI medium (Sigma-Aldrich, Milan, Italy). The cells incubated with SerpinB3 alone or in the presence of PPA (1 ng/ml-10ng/ml-10 μg/ml) were monitored for up to 120 hours by the xCELLigence instrument and the cell proliferation curves shown in FIG. 3 were processed and expressed by the RTCA software as the Normalized Cell Index.

CCL15 and PD-L1 = experiment: Expression of SerpinB3-induced cytokines in THP-1 cells; assay type: cell-based; conditions: PPA 1 ng/ml
From the text: It has been documented that SerpinB3, in addition to inducing resistance to cell death and increased proliferation, is able to induce a reduction in tumor immunosurveillance, in particular through the increased production of cytokines such as CCL15, recently involved in the reduction of immune surveillance in hepatocellular carcinoma, and the immune checkpoint molecule PD-L1, towards which several new antitumor drugs are directed.

MDR1 and MDR2 genes = experiment: Multidrug resistance gene expression by real time PCR; assay type: cell-based; conditions: HepG2/SB3 cells, PPA 10 and 100 ng/ml, 24 hours
Protocol: In order to understand more fully whether the resistance to chemotherapeutic drugs induced by SerpinB3 is exclusively linked to the increased resistance to cell death following the reduced activation of the mitochondrial proapoptotic cascade, the genes involved in multiple resistance to chemotherapeutic drugs have been analysed (multidrug resistance, MDR). In particular, HepG2/SB3 and HepG2 control cells (HepG2/empty) were collected after 24 hours of treatment with PPA at the doses of 10 ng/ml and 100 ng/ml and the gene expression was analysed as follows: MDR 1, MDR 2, MRP1, MRP2, MRP3, GSTP1 by real time PCR according to standard protocols.

[4] = tested on: tumor development in the liver; experiment: DEN plus CDAA diet mouse model of obesity-associated carcinogenesis; assay type: in vivo
From the text: To better assess the role of SerpinB3 in carcinogenesis, a mouse model of obesity-associated carcinogenesis that requires a single administration of diethyl-nitrosamine (DEN) has been developed in mice with different expression of SerpinB3. The study has been performed in mice transgenic for human SerpinB3 (SerpinB3/TG) (the initial colony was kindly provided by Prof. Cassani, Tecnogen, Caserta, Italy) and in SerpinB3 knockout mice (SerpinB3/KO) (the initial colony was kindly provided by Dr. Gary Silverman and Dr. Cliff J. Luke, University of Pittsburg, Children's Hospital, Pittsburg, Pa.). Moreover wild type mice of similar age were used as controls. All animals were bred and maintained with free access to pellet food and water at the Animal Care Facility of the Experimental Surgery Division of the University of Padua.
Mice were injected with (DEN, 25 mg/kg i.p.) at the age of 2 weeks. These mice were fed at the age of 6 weeks with a choline-deficient L-amino acid-defined (CDAA) diet and part of them were sacrificed after […], while the remaining mice were sacrificed after […]. Two groups of control mice were also treated or not with PPA (weekely intraperitoneal injection of 50 ng/g of body weight) during CDAA diet. The experimental protocol was approved by the local Ethical Committee and by the Italian Ministry of Health (Authorization N. 442/2018-PR).

SMILES: O=c1[nH]cc(F)c(=O)[nH]1 [5-Fluorouracil, reference compound]
- Resistance/sensitivity to drug-induced cell death, HepG2/SB3 compared with HepG2/CTR [1]: not different

SMILES: N.N.[Cl][Pt][Cl] [Cisplatin, reference compound]
- Resistance/sensitivity to drug-induced cell death, HepG2/SB3 compared with HepG2/CTR [1]: greater resistance to cell death

SMILES: CN(Cc1cnc2nc(N)nc(N)c2n1)c1ccc(C(=O)N[C@@H](CCC(=O)O)C(=O)O)cc1 [Methotrexate, reference compound]
- Resistance/sensitivity to drug-induced cell death, HepG2/SB3 compared with HepG2/CTR [1]: not different

SMILES: O=C(O)CCN1CCCCC1 [PPA, 3-(1-piperidinyl)propanoic acid]
- PPA concentration up to which no cellular toxicity is observed ([2]; PPA 5-50 μg/ml): up to 5 μg/ml
- PPA doses at which cellular toxicity is highlighted (curves below the control curve) [2]: 25 to 50 µg/mL
- Constitutive SerpinB3 expression (SerpinB3; OE33 and HepG2/SB3 cells, PPA 10-100 ng/ml): reduces in a dose-dependent manner
- Reduction of the synthesis of SerpinB3 (SerpinB3; PPA concentrations of 1-10 ng/ml): about 50%
- SerpinB3 expression induced by exogenous treatment (SerpinB3; THP-1 and HT29 cells, PPA 1-100 ng/ml with recombinant SerpinB3 20-200 ng/ml, 24 hours): reduces in a dose-dependent manner
- Proliferative activity (Normalized Cell Index) [3]: reduction of the proliferative activity which has proved to be dose-dependent
- CCL15 level after stimulation with exogenous SerpinB3 (CCL15 and PD-L1): markedly reduced
- PD-L1 level after stimulation with exogenous SerpinB3 (CCL15 and PD-L1): markedly reduced
- Viability of cells with high levels of SerpinB3 treated with 5-Fluorouracil, on addition of PPA ([1]; HepG2/SB3, 5-Fluorouracil 10 μM): significant reduction of viability
- Viability of cells with high levels of SerpinB3 treated with Cisplatin, on addition of PPA ([1]; HepG2/SB3, Cisplatin 10 μM): significant reduction of viability
- Viability of cells with high levels of SerpinB3 treated with Methotrexate, on addition of PPA ([1]; HepG2/SB3, Methotrexate 10 μM): did not change
- Viability of cells with high levels of SerpinB3 treated with Sorafenib, on addition of PPA ([1]; HepG2/SB3, Sorafenib 10 μM): significant reduction of viability
- MDR1 gene expression (MDR1 and MDR2 genes): reduction of their expression in a dose-dependent manner
- MRD2 gene expression (MDR1 and MDR2 genes): reduction of their expression in a dose-dependent manner
- Tumor formation compared with mice that did not receive the compound ([4]; control (wild type) mice, DEN 25 mg/kg i.p. then CDAA diet, PPA weekly i.p. 50 ng/g body weight, preliminary results): remarkable reduction of tumor formation
- Tolerability in the experimental model ([4]; experimental model): well tolerated

SMILES: CNC(=O)c1cc(Oc2ccc(NC(=O)Nc3ccc(Cl)c(C(F)(F)F)c3)cc2)ccn1 [Sorafenib, reference compound]
- Resistance/sensitivity to drug-induced cell death, HepG2/SB3 compared with HepG2/CTR [1]: greater resistance to cell death
